Data on 8 compounds can be found in ChEMBL document CHEMBL1201862, “PubChem BioAssay data set” (2004).

The target of assay [1] is Peroxisome proliferator-activated receptor gamma/Nuclear receptor corepressor 2 (Homo sapiens, UniProt P37231+Q9Y618). The experiment in a line: Counterscreen for NR2E3 inverse agonists: TR-FRET-based biochemical high throughput dose response assay to identify inverse agonists of the interaction between peroxisome proliferator-activated receptor gamma (PPARg) and nuclear receptor co-repressor 2 (NCOR2). The assay is classed as functional. (A counterscreen serves to expose hits that act by an unwanted route or on another target.)
Peroxisome proliferator-activated receptor gamma/Nuclear receptor corepressor 2, sequence (P37231 whole entry): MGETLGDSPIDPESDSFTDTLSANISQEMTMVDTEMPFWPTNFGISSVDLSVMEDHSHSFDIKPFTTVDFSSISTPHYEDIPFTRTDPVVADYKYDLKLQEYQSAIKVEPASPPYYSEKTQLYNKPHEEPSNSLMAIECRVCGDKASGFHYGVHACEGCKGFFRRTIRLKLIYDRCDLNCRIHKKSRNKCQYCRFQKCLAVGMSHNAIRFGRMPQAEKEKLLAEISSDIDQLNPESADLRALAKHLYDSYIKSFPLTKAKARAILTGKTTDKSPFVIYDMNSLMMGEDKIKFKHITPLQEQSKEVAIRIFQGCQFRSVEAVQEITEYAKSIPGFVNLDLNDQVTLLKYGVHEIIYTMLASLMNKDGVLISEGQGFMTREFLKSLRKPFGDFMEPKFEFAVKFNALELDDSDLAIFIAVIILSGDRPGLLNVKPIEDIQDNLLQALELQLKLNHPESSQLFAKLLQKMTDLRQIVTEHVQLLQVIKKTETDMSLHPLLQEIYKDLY
Peroxisome proliferator-activated receptor gamma/Nuclear receptor corepressor 2, sequence (Q9Y618 whole entry): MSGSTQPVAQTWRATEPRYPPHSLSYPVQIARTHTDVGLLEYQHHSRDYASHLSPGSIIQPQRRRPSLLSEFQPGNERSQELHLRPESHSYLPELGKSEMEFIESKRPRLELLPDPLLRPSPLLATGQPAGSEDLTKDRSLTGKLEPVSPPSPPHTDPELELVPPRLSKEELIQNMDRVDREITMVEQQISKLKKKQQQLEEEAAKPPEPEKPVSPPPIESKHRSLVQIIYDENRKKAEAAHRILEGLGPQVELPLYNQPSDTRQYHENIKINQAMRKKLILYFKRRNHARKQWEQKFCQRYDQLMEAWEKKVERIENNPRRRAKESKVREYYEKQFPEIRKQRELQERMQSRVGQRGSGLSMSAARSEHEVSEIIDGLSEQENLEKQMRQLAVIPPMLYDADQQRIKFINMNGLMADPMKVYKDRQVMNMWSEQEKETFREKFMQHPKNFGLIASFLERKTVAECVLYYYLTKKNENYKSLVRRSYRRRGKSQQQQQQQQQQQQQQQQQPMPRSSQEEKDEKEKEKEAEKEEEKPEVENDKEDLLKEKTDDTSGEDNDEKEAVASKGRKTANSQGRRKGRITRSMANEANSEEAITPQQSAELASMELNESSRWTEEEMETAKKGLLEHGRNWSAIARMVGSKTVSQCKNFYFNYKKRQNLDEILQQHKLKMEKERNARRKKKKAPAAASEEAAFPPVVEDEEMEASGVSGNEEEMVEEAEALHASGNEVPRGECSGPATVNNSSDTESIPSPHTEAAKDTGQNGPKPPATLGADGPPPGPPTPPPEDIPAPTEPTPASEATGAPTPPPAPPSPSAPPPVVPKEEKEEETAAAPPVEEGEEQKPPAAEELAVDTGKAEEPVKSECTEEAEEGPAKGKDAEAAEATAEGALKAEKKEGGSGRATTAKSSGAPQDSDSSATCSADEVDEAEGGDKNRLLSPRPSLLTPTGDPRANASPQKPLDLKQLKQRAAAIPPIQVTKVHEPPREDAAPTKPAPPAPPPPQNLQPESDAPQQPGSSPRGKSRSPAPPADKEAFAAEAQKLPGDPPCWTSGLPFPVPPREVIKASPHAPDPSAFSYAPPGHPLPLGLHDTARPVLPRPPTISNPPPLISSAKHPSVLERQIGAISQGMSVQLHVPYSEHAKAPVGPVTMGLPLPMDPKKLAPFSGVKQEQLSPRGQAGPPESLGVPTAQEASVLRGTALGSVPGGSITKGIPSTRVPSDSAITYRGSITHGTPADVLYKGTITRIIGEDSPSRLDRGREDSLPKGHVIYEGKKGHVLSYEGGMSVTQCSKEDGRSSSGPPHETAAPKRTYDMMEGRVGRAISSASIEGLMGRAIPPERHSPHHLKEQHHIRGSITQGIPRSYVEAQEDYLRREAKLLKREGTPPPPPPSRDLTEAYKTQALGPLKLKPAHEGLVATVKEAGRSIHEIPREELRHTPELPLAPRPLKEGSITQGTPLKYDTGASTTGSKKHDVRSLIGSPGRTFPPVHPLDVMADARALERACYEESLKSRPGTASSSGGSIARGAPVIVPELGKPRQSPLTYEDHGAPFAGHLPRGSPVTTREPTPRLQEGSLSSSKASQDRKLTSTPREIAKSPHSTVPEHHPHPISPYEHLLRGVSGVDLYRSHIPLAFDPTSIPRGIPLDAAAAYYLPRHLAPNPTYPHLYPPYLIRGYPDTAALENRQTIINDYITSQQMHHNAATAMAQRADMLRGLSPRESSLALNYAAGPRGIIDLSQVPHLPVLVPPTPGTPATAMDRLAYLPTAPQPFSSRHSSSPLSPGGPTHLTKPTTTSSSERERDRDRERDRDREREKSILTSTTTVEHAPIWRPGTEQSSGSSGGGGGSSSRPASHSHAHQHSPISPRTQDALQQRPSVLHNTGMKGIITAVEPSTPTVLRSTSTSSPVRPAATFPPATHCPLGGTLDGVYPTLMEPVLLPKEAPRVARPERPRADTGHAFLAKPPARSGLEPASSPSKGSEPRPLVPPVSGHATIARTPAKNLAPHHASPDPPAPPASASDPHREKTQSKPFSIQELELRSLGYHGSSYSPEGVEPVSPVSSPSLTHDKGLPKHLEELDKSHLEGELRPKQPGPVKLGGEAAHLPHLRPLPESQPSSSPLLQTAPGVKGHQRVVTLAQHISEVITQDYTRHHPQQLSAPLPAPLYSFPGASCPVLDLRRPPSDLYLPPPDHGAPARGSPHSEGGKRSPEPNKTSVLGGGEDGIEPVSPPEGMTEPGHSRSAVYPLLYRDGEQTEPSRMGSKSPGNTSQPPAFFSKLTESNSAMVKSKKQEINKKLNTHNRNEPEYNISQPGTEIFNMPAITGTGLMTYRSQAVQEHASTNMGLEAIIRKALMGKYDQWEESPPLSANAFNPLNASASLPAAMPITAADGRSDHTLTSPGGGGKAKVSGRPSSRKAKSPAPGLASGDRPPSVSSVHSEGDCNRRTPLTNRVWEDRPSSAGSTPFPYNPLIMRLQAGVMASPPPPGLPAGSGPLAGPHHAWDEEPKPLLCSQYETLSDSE

Assay [2] has as its target Photoreceptor-specific nuclear receptor (Homo sapiens, UniProt Q9Y5X4). Briefly: ligands suppressing NR2E3 nuclear receptor activity – biochemical, TR-FRET, dose response (AID 463256). Type of assay: functional. For orientation: In TR-FRET formats the signal depends on donor and acceptor labels being close together.
Assay [3] deals with Tyrosine-protein phosphatase non-receptor type 11 (Homo sapiens, UniProt Q06124). Briefly: PTPN11 enzyme inhibitors – biochemical, selectivity assay for STEP inhibitor project, dose response (AID 602367). Type of assay: functional. Conditions: read-out: IC50_Mean.
Assay [4] has as its target Tyrosine-protein phosphatase non-receptor type 5 (Homo sapiens, UniProt P54829). The experiment in a line: PTPN5 enzyme inhibition – biochemical, fluorescence intensity, uHTS hits, confirmation (AID 602372). The assay is classed as functional. Conditions: read-out: IC50_Mean.
The target in assay [5] is Dual specificity protein phosphatase 3 (Homo sapiens, UniProt P51452). The experiment in a line: VHR phosphatase inhibition, dose response, selectivity assay for STEP inhibitor project, biochemical (AID 602374). The assay is classed as functional. The note with it: read-out: IC50_Mean.
Assay [6] addresses Tyrosine-protein phosphatase non-receptor type 22 (Homo sapiens, UniProt Q9Y2R2). The experiment in a line: lymphoid phosphatase LYP inhibitors – biochemical, selectivity assay for STEP inhibitor project, dose response (AID 624241). The assay is classed as functional.
Assay [7] in a line: IC50 of insulin release inhibition, rat insulinoma INS-1E line, 5 mM glucose, cell-based (AID 1117331). Type of assay: functional.
A further assay can be described thus: cells. Conditions: INS-1E. Type of assay: functional, cell-based.
The next assay addresses Galanin receptor type 2 (Homo sapiens, UniProt O43603). The experiment in a line: Dose Response cell-based high-throughput screening assay to identify agonists of galanin receptor 2 (GALR2). [Related pubchem assays: 864 ]. The assay is classed as functional.
Assay [8] is described as follows: rise of 2N DNA cells, HeLa – IC50, dose response (AID 1117349). Type of assay: functional, cell-based.
Assay [9] can be described thus: rise of 4N DNA cells, HeLa – IC50, dose response (AID 1117351). Type of assay: functional, cell-based.
The nature of assay [10]: CellTiter-Glo luminescence survival assay, SW480 colon tumor line, concentration-response curve, half-maximal inhibitory concentration (AID 1117338). The assay is classed as functional. (In ATP-based viability assays light output follows the ATP content of the culture.)
Assay [11] in a line: RKO cell viability reduction, dose response, CellTiter-Glo luminescence (AID 1117322). The assay is classed as functional.
A short description of assay [12]: cytotoxicity toward HCT116 cells – cell-based, CellTiter-Glo luminescence, IC50, dose response (AID 1117332). Type of assay: functional. The note with it: HCT-116.
A short description of assay [13]: SNU-C1 cell viability reduction, dose response, CellTiter-Glo luminescence (AID 1117323). The assay is classed as functional, cell-based.
Assay [14] is described as follows: cytotoxicity toward Colo320 cells – cell-based, CellTiter-Glo luminescence, IC50, dose response (AID 1117334). Type of assay: functional. The note with it: COLO 320.
Assay [15] is described as follows: cytotoxicity toward HT-29 cells – cell-based, CellTiter-Glo luminescence, IC50, dose response (AID 1117330). Type of assay: functional.
Assay [16] in a line: Reduced DLD-1 viability, concentration-response, CellTiter-Glo luminescence (AID 1117352). The assay is classed as functional.
Assay [17] can be described thus: HCT116 cell viability decrease, GSK3B pretreatment – CellTiter-Glo, IC50, dose response (AID 1117339). Type of assay: functional. Conditions: HCT-116.
A short description of assay [18]: Dd2 parasite growth inhibition in erythrocytes – SYBR Green, dry powder samples, set 9, dose response (AID 1159568). Type of assay: functional, cell-based.
The target in the next assay is Protein Tat (Human immunodeficiency virus type 1 group M subtype B (isolate HXB2)(HIV-1), UniProt P04608). The assay is classed as functional.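 Also: tat binding to TAR RNA read out by fluorescence polarization.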
Assay [19] addresses Mitogen-activated protein kinase 10 (Homo sapiens, UniProt P53779). The experiment in a line: Dose response biochemical screening assay for inhibitors of c-Jun N-Terminal Kinase 3 (JNK3). [Related pubchem assays: 746 ].
Assay [20] addresses DNA dC->dU-editing enzyme APOBEC-3A (Homo sapiens, UniProt P31941). The experiment in a line: Dose Response confirmation of small molecule APOBEC3A DNA Deaminase Inhibitors via a fluorescence-based single-stranded DNA deaminase assay. [Related pubchem assays (depositor defined):AID493011, AID493024]. The assay is classed as functional.
For assay [21], the target named is DNA dC->dU-editing enzyme APOBEC-3G (Homo sapiens, UniProt Q9HC16). Type of assay: functional.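 Also: Dose-response counterscreen measuring inhibition of APOBEC3G DNA deaminase activity, run while confirming APOBEC3A inhibitors.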
DNA dC->dU-editing enzyme APOBEC-3G, sequence (Q9HC16 whole entry): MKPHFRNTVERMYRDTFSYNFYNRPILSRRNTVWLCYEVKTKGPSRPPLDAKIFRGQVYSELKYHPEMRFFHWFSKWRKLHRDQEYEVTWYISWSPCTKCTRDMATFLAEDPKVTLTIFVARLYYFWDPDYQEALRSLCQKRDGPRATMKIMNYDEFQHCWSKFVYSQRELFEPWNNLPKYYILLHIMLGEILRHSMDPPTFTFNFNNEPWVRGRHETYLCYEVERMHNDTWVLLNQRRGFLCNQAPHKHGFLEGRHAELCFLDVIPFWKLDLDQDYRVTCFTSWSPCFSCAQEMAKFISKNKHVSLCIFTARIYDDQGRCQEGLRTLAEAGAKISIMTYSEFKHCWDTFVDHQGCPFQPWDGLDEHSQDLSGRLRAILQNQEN

The source made the active and inactive calls.

Photoreceptor-specific nuclear receptor, sequence (Q9Y5X4 whole entry): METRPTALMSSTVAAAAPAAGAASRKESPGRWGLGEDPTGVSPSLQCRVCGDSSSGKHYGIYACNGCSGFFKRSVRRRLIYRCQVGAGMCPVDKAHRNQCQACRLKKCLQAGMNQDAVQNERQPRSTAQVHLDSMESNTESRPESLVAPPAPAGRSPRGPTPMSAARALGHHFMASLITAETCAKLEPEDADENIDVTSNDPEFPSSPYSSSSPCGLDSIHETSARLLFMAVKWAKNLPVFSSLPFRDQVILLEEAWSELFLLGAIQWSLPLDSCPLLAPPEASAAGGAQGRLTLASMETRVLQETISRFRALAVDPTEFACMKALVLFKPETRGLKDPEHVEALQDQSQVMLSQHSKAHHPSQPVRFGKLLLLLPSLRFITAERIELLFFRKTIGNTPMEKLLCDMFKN
Galanin receptor type 2, sequence (O43603 whole entry): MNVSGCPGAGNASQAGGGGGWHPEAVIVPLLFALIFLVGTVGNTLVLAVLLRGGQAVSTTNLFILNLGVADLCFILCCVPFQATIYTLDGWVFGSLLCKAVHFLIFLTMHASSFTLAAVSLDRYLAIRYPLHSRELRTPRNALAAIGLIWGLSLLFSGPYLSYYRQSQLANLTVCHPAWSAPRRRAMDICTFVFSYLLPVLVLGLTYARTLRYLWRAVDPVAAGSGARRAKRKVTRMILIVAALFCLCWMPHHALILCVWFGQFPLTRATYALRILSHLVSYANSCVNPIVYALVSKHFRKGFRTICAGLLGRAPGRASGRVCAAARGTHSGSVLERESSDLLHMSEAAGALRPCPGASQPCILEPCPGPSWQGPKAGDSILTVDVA
Tyrosine-protein phosphatase non-receptor type 22, sequence (Q9Y2R2 whole entry): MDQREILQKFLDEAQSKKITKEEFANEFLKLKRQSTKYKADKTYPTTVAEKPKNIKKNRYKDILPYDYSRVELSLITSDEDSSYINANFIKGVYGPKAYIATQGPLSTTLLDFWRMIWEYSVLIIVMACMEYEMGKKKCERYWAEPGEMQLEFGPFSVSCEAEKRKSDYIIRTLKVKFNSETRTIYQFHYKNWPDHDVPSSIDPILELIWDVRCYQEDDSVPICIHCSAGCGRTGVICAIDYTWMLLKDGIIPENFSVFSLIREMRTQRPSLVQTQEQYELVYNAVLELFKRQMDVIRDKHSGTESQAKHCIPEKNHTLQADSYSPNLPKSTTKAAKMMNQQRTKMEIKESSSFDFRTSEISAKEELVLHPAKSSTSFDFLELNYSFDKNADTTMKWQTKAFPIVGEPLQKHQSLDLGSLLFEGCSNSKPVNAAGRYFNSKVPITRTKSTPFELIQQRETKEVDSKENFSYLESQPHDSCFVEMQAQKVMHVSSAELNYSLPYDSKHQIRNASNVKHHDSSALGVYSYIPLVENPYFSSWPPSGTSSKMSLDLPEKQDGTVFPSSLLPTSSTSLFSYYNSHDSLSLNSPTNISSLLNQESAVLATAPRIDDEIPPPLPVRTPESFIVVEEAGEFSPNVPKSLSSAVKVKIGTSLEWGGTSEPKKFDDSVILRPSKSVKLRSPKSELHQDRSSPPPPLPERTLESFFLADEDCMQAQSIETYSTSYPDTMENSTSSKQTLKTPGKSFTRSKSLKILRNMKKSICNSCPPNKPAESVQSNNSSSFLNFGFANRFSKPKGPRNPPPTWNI

Turning to `COc1ccc(-c2ccc(NC(=O)c3ccc(Br)o3)cc2)nn1`, the IC50 in assay [1] is 4.7 µM (active); in [2], 3.38 µM (active); in [3] it was 4.3 µM (active); in [4] it was 18 µM (active); in [5], 6.6 µM (active); in [6], 74.1 µM (inactive).
Consider `c1cc(CN2CCCCC2)cc(OCCCNc2nc3ccccc3s2)c1`, for which the IC50 is > 11.1 µM (inactive) in assay [7] and > 33.3 µM (inactive) in “cells”.
Usually EC50 stands for the midpoint of the concentration-response curve. A high value points to a need for much substance. Consider `C=CCNC(=O)/C(C#N)=C/c1cn(-c2ccccc2)nc1-c1cccs1`, for which, on Galanin receptor type 2, the EC50 is listed as 45.4 µM (not active).
`C=C(C)[C@H]1Cc2c(ccc3c2O[C@@H]2COc4cc(OC)c(OC)cc4[C@@H]2C3=O)O1` [ROTENONE]: the IC50 in [8] and in assay [9] was 0.311 µM (active) in each case.
As to `ClC1=C(Cl)C2(Cl)C(CBr)CC1(Cl)C2(Cl)Cl` (centres undefined) [BROMOCICLEN], the IC50 in assay [10], in assay [11], in assay [12], in assay [13], in assay [14] and in [15] was > 20 µM (inactive) each time. The IC50 in [16] and in [17] was > 20 µM (inactive) in each case.
As usually defined, the AC50 is the concentration giving half of the maximal activity seen. In the case of `C[C@H](CO)N1C[C@H](C)[C@@H](CN(C)S(=O)(=O)c2ccc(F)cc2)OCCCC[C@H](C)Oc2ccc(N(C)C)cc2C1=O`, the AC50 in assay [18] is 5.9 µM (active).
Take `CCc1ccccc1N(CC(=O)NCCSCc1ccco1)S(C)(=O)=O`: the IC50 on Protein Tat is > 100 µM (active).
On to `CC1(C)Oc2ccc3ccc(=O)oc3c2-c2c[nH]nc21`, for which the results for the IC50 in assay [19], in assay [20] and in assay [21] were > 31 µM (not active), 4.45 µM (active) and 5.7 µM (active), respectively.
